Like-named read-outs stand apart in the source and are kept apart here.
Experiments:
[1] = molecular target: T1, Pf20S β5 (Plasmodium falciparum, UniProt Q8IJT1); experiment: fluorogenic peptidase assay; format: biochemical
T1 sequence (Q8IJT1 61-271): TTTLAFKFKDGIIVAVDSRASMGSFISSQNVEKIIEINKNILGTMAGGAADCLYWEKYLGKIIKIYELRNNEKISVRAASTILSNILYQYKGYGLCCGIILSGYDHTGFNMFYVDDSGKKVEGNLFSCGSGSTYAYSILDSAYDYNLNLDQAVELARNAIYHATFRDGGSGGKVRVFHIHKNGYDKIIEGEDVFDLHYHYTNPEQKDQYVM
T1 sequence (A0A5K1K7U1 29-240 partner): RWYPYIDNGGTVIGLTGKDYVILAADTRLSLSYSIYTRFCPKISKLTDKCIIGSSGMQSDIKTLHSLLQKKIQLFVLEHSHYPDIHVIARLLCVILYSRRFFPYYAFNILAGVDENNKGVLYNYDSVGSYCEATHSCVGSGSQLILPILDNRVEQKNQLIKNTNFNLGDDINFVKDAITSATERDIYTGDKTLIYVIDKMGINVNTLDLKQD

[2] = molecular target: T2, human c-20S β5c (Homo sapiens, UniProt P28074); experiment: fluorogenic peptidase assay; format: biochemical; conditions: 25 μM suc-LLVY-AMC; 0.2 nM c-20S; 0.02% SDS; pH 7.5; β5c active site
T2 sequence (P28074 60-263): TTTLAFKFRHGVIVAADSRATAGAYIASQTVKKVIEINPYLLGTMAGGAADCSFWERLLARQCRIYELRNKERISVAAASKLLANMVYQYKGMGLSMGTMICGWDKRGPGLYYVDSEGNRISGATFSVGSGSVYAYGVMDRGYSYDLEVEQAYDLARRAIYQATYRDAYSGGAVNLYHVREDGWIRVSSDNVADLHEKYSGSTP
T2 sequence (P20618 29-241 partner): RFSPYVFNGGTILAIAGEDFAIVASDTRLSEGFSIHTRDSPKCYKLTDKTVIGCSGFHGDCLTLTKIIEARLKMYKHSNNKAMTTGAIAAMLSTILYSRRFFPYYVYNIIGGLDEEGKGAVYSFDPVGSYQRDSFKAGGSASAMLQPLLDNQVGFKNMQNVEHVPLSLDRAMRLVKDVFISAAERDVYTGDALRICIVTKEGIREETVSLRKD

[3] = molecular target: T3, human i-20S β5i (Homo sapiens, UniProt P28062); experiment: fluorogenic peptidase assay; format: biochemical; conditions: 15 μM Ac-ANW-AMC; 0.4 nM i-20S; 0.02% SDS; pH 7.5; β5i active site
T3 sequence (P28062 73-276): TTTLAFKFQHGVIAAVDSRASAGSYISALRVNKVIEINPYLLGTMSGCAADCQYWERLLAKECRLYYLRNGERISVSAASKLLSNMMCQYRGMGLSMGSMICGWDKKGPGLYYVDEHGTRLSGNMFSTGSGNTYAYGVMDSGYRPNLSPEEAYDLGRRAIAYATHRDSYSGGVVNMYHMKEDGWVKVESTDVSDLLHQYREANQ
T3 sequence (P20618 29-241 partner): T2 sequence (P20618 29-241 partner)

[4] = molecular target: T2, human c-20S β5c; conditions: read-out: IC50 (nM) c-20S; inhibitor
[5] = molecular target: T3, human i-20S β5i; conditions: read-out: IC50 (nM) i-20S; inhibitor
[6] = molecular target: T1, Pf20S β5; experiment: biochemical
[7] = test system: Plasmodium falciparum Pf3D7; experiment: microbe, parasite or virus in culture; design: species or system P. falciparum 3D7 in human red blood cells; conditions: Erythrocyte, read-out: EC50 (nM) Pf3D7

IC50 [4] | SMILES | IC50 [1] | IC50 [2] | IC50 [3] | IC50 [5] | IC50 [6] | EC50 [7]
– | C[C@H]1[C@@H](CC(=O)N[C@@H](CC(=O)NC(C)(C)C)C(=O)NCCNC(=O)c2cc(-c3ccccc3F)ccc2F)O[C@@H]2O[C@@]3(C)CC[C@H]4[C@H](C)CC[C@@H]1[C@@]24OO3 [ATZ1] | 63.2 ± 11 nM | 3600 nM | 650 ± 94 nM | – | – | –
– | C[C@H]1[C@@H](CC(=O)NCC(=O)N[C@@H](CC(=O)NC(C)(C)C)C(=O)NCCNC(=O)c2cc(-c3ccccc3F)ccc2F)O[C@@H]2O[C@@]3(C)CC[C@H]4[C@H](C)CC[C@@H]1[C@@]24OO3 [ATZ2] | – | 210 ± 40 nM | 73 ± 19 nM | – | – | –
– | C[C@H]1[C@@H](CC(=O)NCCC(=O)N[C@@H](CC(=O)NC(C)(C)C)C(=O)NCCNC(=O)c2cc(-c3ccccc3F)ccc2F)O[C@@H]2O[C@@]3(C)CC[C@H]4[C@H](C)CC[C@@H]1[C@@]24OO3 [ATZ3] | 2.4 ± 0.4 nM | – | 260 ± 51 nM | – | – | –
– | C[C@H]1[C@@H](CC(=O)NCCCC(=O)N[C@@H](CC(=O)NC(C)(C)C)C(=O)NCCNC(=O)c2cc(-c3ccccc3F)ccc2F)O[C@@H]2O[C@@]3(C)CC[C@H]4[C@H](C)CC[C@@H]1[C@@]24OO3 [ATZ4] | – | 890 ± 140 nM | 200 ± 57 nM | – | – | –
> 100000 nM | C[C@H]1[C@H](OC(=O)CCC(=O)O)O[C@@H]2O[C@@]3(C)CC[C@H]4[C@H](C)CC[C@@H]1[C@@]24OO3 [Artesunate] | – | – | – | > 100000 nM | > 100000 nM | 6.2 ± 4 nM
– | CC(C)(C)NC(=O)C[C@H](NC(=O)CCCNC(=O)OC(C)(C)C)C(=O)NCCNC(=O)c1cc(-c2ccccc2F)ccc1F [PI01] | – | 2000 nM | 200 ± 46 nM | – | – | –
– | C[C@H]1[C@H](OC(=O)CCC(=O)N[C@@H](CC(=O)NC(C)(C)C)C(=O)NCCNC(=O)c2cc(-c3ccccc3)ccn2)O[C@@H]2O[C@@]3(C)CC[C@H]4[C@H](C)CC[C@@H]1[C@@]24OO3 [WZ-06, (3R,5aS,6R,8aS,9R,10S,12R,12aR)-3,6,9-trimethyldecahydro-12H-3,12-epoxy[1,2]dioxepino[4,3-i]isochromen-10-yl 4-(((S)-4-(tert-butylamino)-1,4-dioxo-1-((2-(4-phenylpicolinamido)ethyl)amino)butan-2-yl)amino)-4-oxobutanoate] | – | – | – | 1100 nM | 13.5 ± 7.6 nM | 3.6 ± 0.01 nM
– | C[C@H]1[C@H](OC(=O)CCC(=O)N[C@@H](CC(=O)NC(C)(C)C)C(=O)NCCNC(=O)c2cc(-c3ccccc3)ccn2)O[C@@H]2O[C@@]3(C)CC[C@H]4[C@H](C)CC[C@@H]1[C@@]24OO3 [WZ-06] | 6 nM | – | – | – | – | –
– | C[C@H]1[C@H](OC(=O)CCC(=O)N[C@@H](CC(=O)NC(C)(C)C)C(=O)NCCNC(=O)c2cc(-c3ccccc3F)ccc2F)O[C@@H]2O[C@@]3(C)CC[C@H]4[C@H](C)CC[C@@H]1[C@@]24OO3 [WZ-13] | 2 nM | – | – | – | – | –
34300 nM | CC(C)(C)NC(=O)C[C@H](NC(=O)CCC(=O)O)C(=O)NCCNC(=O)c1cc(-c2ccccc2F)ccc1F [WZ-20, (S)-4-((4-(tert-butylamino)-1-((2-(2',4-difluoro-[1,1'-biphenyl]-3-carboxamido)ethyl)amino)-1,4-dioxobutan-2-yl)amino)-4-oxobutanoic acid] | – | – | – | 3490 nM | 6 ± 0.005 nM | 50.8 ± 0.7 nM

SMILES | IC50 [4] | IC50 [1] | IC50 [2] | IC50 [3] | IC50 [5] | IC50 [6] | EC50 [7]
C[C@H]1[C@H](OC(=O)CCC(=O)N[C@@H](CC(=O)NC(C)(C)C)C(=O)NCCNC(=O)c2cc(-c3ccccc3F)ccc2F)O[C@@H]2O[C@@]3(C)CC[C@H]4[C@H](C)CC[C@@H]1[C@@]24OO3 [WZ-13, (3R,5aS,6R,8aS,9R,10S,12R,12aR)-3,6,9-trimethyldecahydro-12H-3,12-epoxy[1,2]dioxepino[4,3-i]isochromen-10-yl 4-(((S)-4-(tert-butylamino)-1-((2-(2',4-difluoro-[1,1'-biphenyl]-3-carboxamido)ethyl)amino)-1,4-dioxobutan-2-yl)amino)-4-oxobutanoate] | 440 ± 110 nM | – | – | – | 158 ± 50 nM | 5.5 ± 3.8 nM | 2.5 ± 0.7 nM
